From ChEMBL document CHEMBL1909046, “DrugMatrix in vitro pharmacology data”

Key:
[1] = target: T1, Amine oxidase [flavin-containing] A (Homo sapiens, UniProt P21397); test: DRUGMATRIX: Monoamine Oxidase MAO-A enzyme inhibition (substrate: Kynuramine); design: species or system BTI-TN-5B1-4; conditions: bti-tn-5b1-4; Not Active = under 50% inhibition at 10 µM
T1 sequence (P21397 whole entry): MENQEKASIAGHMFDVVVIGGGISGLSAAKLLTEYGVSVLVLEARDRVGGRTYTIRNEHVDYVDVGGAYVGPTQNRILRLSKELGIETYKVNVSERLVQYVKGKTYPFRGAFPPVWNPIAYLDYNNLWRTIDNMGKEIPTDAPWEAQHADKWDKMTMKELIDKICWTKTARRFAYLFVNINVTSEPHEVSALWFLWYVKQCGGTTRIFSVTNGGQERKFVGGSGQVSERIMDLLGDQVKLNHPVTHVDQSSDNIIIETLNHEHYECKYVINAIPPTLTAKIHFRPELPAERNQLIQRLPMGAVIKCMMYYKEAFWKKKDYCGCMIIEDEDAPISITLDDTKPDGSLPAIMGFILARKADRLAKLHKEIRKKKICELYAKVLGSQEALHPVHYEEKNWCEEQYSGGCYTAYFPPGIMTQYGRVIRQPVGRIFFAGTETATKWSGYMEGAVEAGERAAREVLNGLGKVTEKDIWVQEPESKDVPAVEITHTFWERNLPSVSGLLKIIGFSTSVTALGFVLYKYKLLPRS

[2] = target: D(1A) dopamine receptor (Homo sapiens, UniProt P21728); test: DRUGMATRIX: Dopamine D1 radioligand binding (ligand: [3H] SCH-23390); format: cell membranes, CHO, Membrane; conditions: Not Active = under 50% inhibition at 10 µM
[3] = target: Mitogen-activated protein kinase 3 (Homo sapiens, UniProt P27361); test: DRUGMATRIX: Protein Serine/Threonine Kinase, ERK1 enzyme inhibition (substrate: Myelin Basic Protein); design: species or system Escherichia coli; conditions: Not Active = under 50% inhibition at 10 µM
[4] = DRUGMATRIX: Glutamate, AMPA radioligand binding (ligand: [3H] AMPA); format: cell membranes, Rattus norvegicus, Wistar, Cerebral cortex, Membrane; conditions: Not Active = under 50% inhibition at 10 µM
[5] = DRUGMATRIX: Imidazoline I2, Central radioligand binding (ligand: [3H] Idazoxan); format: cell membranes, Rattus norvegicus, Wistar, Cerebral cortex, Membrane; conditions: Not Active = under 50% inhibition at 10 µM
[6] = DRUGMATRIX: Phorbol Ester radioligand binding (ligand: [3H] PDBu); format: cell membranes, Mus musculus, ICR, Brain, Membrane; conditions: Not Active = under 50% inhibition at 10 µM
[7] = DRUGMATRIX: GABAA, Muscimol, Central radioligand binding (ligand: [3H] Muscimol); format: cell membranes, Rattus norvegicus, Wistar, Brain, Membrane; conditions: Not Active = under 50% inhibition at 10 µM

Mitogen-activated protein kinase 3, sequence (P27361 whole entry): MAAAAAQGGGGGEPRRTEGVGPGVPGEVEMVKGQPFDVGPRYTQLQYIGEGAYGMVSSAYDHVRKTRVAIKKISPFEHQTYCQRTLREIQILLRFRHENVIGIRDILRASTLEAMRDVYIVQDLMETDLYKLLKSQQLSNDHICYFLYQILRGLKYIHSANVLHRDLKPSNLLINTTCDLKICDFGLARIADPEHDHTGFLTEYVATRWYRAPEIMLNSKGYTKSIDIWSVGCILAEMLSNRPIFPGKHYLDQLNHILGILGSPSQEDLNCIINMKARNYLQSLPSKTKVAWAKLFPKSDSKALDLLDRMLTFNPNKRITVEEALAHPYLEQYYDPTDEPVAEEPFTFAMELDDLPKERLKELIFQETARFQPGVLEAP
D(1A) dopamine receptor, sequence (P21728 whole entry): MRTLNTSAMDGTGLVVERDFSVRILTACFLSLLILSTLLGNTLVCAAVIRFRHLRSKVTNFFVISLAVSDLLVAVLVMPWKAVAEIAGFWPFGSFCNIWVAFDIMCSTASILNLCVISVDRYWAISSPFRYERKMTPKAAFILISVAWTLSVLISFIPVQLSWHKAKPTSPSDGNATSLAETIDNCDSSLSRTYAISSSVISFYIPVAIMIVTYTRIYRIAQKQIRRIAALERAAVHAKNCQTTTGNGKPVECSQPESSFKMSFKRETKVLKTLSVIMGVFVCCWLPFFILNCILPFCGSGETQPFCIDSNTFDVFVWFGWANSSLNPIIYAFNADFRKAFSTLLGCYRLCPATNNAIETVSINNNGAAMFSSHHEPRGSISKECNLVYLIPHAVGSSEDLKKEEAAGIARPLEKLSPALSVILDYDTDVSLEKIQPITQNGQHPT

Row | Compound | IC50 [1] | IC50 ([2]; cho) | IC50 [3] | IC50 [4] | Ki [4] | IC50 [5] | Ki [5] | IC50 [6] | Ki [6] | IC50 [7] | Ki [7] | IC50 ([5]; read-out: IC50) | Ki ([5]; read-out: Ki) | IC50 ([2]; read-out: IC50) | Ki ([2]; read-out: Ki) | Ki [1] | Ki ([2]; cho) | Ki [3]
1 | CCC1(c2ccccc2)C(=O)NC(=O)NC1=O [PHENOBARBITAL] | Not Active | Not Active | Not Active | Not Active | Not Active | Not Active | Not Active | Not Active | Not Active | Not Active | Not Active |  |  |  |  |  |  | 
2 | O=C1c2ccccc2C(=O)C1c1ccccc1 [PHENINDIONE] | Not Active | Not Active | Not Active | Not Active | Not Active | Not Active | Not Active | Not Active | Not Active | Not Active | Not Active |  |  |  |  |  |  | 
3 | OC[C@H]1OC2C3[C@@H](CO)OC(O[C@H]4[C@H](O)[C@@H](O)[C@@H](O[C@H]5[C@H](O)[C@@H](O)[C@@H](O[C@H]6[C@H](O)[C@@H](O)[C@@H](O[C@H]7[C@H](O)[C@@H](O)[C@@H](O[C@H]8[C@H](O)[C@@H](O)[C@@H](O[C@H]9[C@H](O)[C@@H](O)C(OC1[C@H](O)[C@H]2O)O[C@@H]9CO)O[C@@H]8CO)O[C@@H]7CO)O[C@@H]6CO)O[C@@H]5CO)O[C@@H]4CO)[C@H](O)[C@H]3O | Not Active | Not Active | Not Active | Not Active | Not Active | Not Active | Not Active | Not Active | Not Active | Not Active | Not Active |  |  |  |  |  |  | 
4 | CO[C@H]1O[C@@H]2O[C@@]3(C)CC[C@H]4[C@H](C)CC[C@@H]([C@H]1C)[C@@]24OO3 | Not Active | Not Active | Not Active | Not Active | Not Active | Not Active | Not Active | Not Active | Not Active | Not Active | Not Active |  |  |  |  |  |  | 
5 | CC(C)Cn1cnc2c(N)nc3ccccc3c21 [IMIQUIMOD] | Not Active | Not Active | Not Active | Not Active | Not Active | Not Active | Not Active | Not Active | Not Active | Not Active | Not Active |  |  |  |  |  |  | 
6 | COc1cc(NC(C)CCCN)c2ncccc2c1 (configuration not stated) [PRIMAQUINE] | Not Active | Not Active | Not Active | Not Active | Not Active | Not Active | Not Active | Not Active | Not Active | Not Active | Not Active |  |  |  |  |  |  | 
7 | O=C(O)COC(=O)Cc1ccccc1Nc1c(Cl)cccc1Cl [ACECLOFENAC] | Not Active | Not Active | Not Active | Not Active | Not Active | Not Active | Not Active | Not Active | Not Active | Not Active | Not Active |  |  |  |  |  |  | 
8 | C#C[C@]1(O)CC[C@H]2[C@@H]3CCC4=CC(=O)CC[C@@H]4[C@H]3CC[C@@]21C [NORETHINDRONE] | Not Active | Not Active | Not Active | Not Active | Not Active | Not Active | Not Active | Not Active | Not Active | Not Active | Not Active |  |  |  |  |  |  | 
9 | CC(C)(C#N)c1cc(Cn2cncn2)cc(C(C)(C)C#N)c1 [ANASTROZOLE] | Not Active | Not Active | Not Active | Not Active | Not Active | Not Active | Not Active | Not Active | Not Active | Not Active | Not Active |  |  |  |  |  |  | 
10 | Cc1cc(C(C)(C)C)c(O)c(C)c1CC1=NCCN1 [OXYMETAZOLINE] | Not Active | Not Active | Not Active | Not Active | Not Active |  |  | Not Active | Not Active | Not Active | Not Active | 0.027 µM | 0.018 µM |  |  |  |  | 
11 | O=C(Nc1ccc(Cl)c(Cl)c1)c1cc(Cl)cc(Cl)c1O [3,3',4',5-TETRACHLOROSALICYLANILIDE] | Not Active | Not Active | Not Active | Not Active | Not Active | Not Active | Not Active | Not Active | Not Active | Not Active | Not Active |  |  |  |  |  |  | 
12 | O=C(O)CO [GLYCOLIC ACID] | Not Active | Not Active | Not Active | Not Active | Not Active | Not Active | Not Active | Not Active | Not Active | Not Active | Not Active |  |  |  |  |  |  | 
13 | COC(=O)C[C@](O)(CCC(C)(C)O)C(=O)O[C@@H]1C(OC)=C[C@]23CCCN2CCc2cc4c(cc2[C@H]13)OCO4 [HARRINGTONINE] | Not Active | Not Active | Not Active | Not Active | Not Active | Not Active | Not Active | Not Active | Not Active | Not Active | Not Active |  |  |  |  |  |  | 
14 | CC(C)(c1ccc(O)cc1)c1ccc(O)cc1 [BISPHENOL A] | Not Active | Not Active | Not Active | Not Active | Not Active | Not Active | Not Active | Not Active | Not Active | Not Active | Not Active |  |  |  |  |  |  | 
15 | C=CCO [ALLYL ALCOHOL] | Not Active | Not Active | Not Active | Not Active | Not Active | Not Active | Not Active | Not Active | Not Active | Not Active | Not Active |  |  |  |  |  |  | 
16 | C[C@]12CC[C@@H](O)C[C@@H]1CC[C@@H]1[C@@H]2CC[C@]2(C)C(=O)CC[C@@H]12 [ANDROSTERONE] | Not Active | Not Active | Not Active | Not Active | Not Active | Not Active | Not Active | Not Active | Not Active | Not Active | Not Active |  |  |  |  |  |  | 
17 | COc1ccc(Cl)cc1C(=O)NCCc1ccc(S(=O)(=O)NC(=O)NC2CCCCC2)cc1 [GLYBURIDE] | Not Active | Not Active | Not Active | Not Active | Not Active | Not Active | Not Active | Not Active | Not Active | Not Active | Not Active |  |  |  |  |  |  | 
18 | CC(CN1c2ccccc2Sc2ccccc21)N(C)C (configuration not stated) [PROMETHAZINE] | Not Active |  | Not Active | Not Active | Not Active |  |  | Not Active | Not Active | Not Active | Not Active | 1.99 µM | 1.33 µM | 2.74 µM | 1.37 µM |  |  | 
19 | C[N+](C)(C)CCOP(=O)([O-])OC[C@H](O)CO | Not Active | Not Active | Not Active | Not Active | Not Active | Not Active | Not Active | Not Active | Not Active | Not Active | Not Active |  |  |  |  |  |  | 
20 | NCC(CC(=O)O)c1ccc(Cl)cc1 (configuration not stated) [BACLOFEN] | Not Active | Not Active | Not Active | Not Active | Not Active | Not Active | Not Active | Not Active | Not Active | Not Active | Not Active |  |  |  |  |  |  | 
21 | CC12CCC(CC1=O)C2(C)C (configuration not stated) [CAMPHOR] | Not Active | Not Active | Not Active | Not Active | Not Active | Not Active | Not Active | Not Active | Not Active | Not Active | Not Active |  |  |  |  |  |  | 
22 | POVIDONE | Not Active | Not Active | Not Active | Not Active | Not Active | Not Active | Not Active | Not Active | Not Active | Not Active | Not Active |  |  |  |  | Not Active | Not Active | Not Active
23 | Cc1ccnc2c1NC(=O)c1cccnc1N2C1CC1 [NEVIRAPINE] | Not Active | Not Active | Not Active | Not Active | Not Active | Not Active | Not Active | Not Active | Not Active | Not Active | Not Active |  |  |  |  |  |  | 
